Measurements: ChEMBL document CHEMBL4177607, “Antibacterial constituents of the plant family Amaryllidaceae” (2017)
Values after ≈ are worked out from the molar mass of the structure shown.

What was measured:
Staphylococcus aureus [1] = experiment: Antibacterial activity against Staphylococcus aureus assessed as diameter of inhibition zone at 1 mg/ml; format: functional; details: read-out: DIZ
Escherichia coli [2] = experiment: Antibacterial activity against Escherichia coli by agar dilution method; format: functional
Escherichia coli [3] = experiment: Antibacterial activity against Escherichia coli assessed as diameter of inhibition zone at 1 mg/ml; format: functional; details: read-out: DIZ
Staphylococcus aureus [4] = experiment: Antibacterial activity against Staphylococcus aureus by agar dilution method; format: functional
Staphylococcus aureus [5] = experiment: Antibacterial activity against Staphylococcus aureus assessed as diameter of inhibition zone at 3 mg/ml; format: functional; details: read-out: DIZ
Pseudomonas aeruginosa [6] = experiment: Antibacterial activity against Pseudomonas aeruginosa assessed as diameter of inhibition zone at 3 mg/ml; format: functional; details: read-out: DIZ
Bacillus subtilis = experiment: Antibacterial activity against Bacillus subtilis incubated overnight by two-fold serial dilution method; format: functional
Escherichia coli [7] = experiment: Antibacterial activity against Escherichia coli incubated overnight by two-fold serial dilution method; format: functional
Staphylococcus aureus [8] = experiment: Antibacterial activity against Staphylococcus aureus incubated overnight by two-fold serial dilution method; format: functional
Klebsiella pneumoniae [9] = experiment: Antibacterial activity against Klebsiella pneumoniae incubated overnight by two-fold serial dilution method; format: functional
[10] = system: Agrobacterium tumefaciens; experiment: Antibacterial activity against Agrobacterium tumefaciens assessed as inhibition of crown gall tumor initiation at 1 mg/ml; format: functional
Escherichia coli [11] = experiment: Bacteriostatic activity against Escherichia coli assessed as growth inhibition at 8 ug/ml after 24 hrs; format: functional; details: read-out: GI
Helicobacter pylori = experiment: Antibacterial activity against Helicobacter pylori assessed as diameter of inhibition zone at 1 mg/ml; format: functional; details: read-out: DIZ
Pseudomonas aeruginosa [12] = experiment: Antibacterial activity against Pseudomonas aeruginosa assessed as diameter of inhibition zone at 20 mg/ml; format: functional; details: read-out: DIZ
Staphylococcus aureus [13] = experiment: Antibacterial activity against Staphylococcus aureus assessed as diameter of inhibition zone at 20 mg/ml; format: functional; details: read-out: DIZ
Klebsiella pneumoniae [14] = experiment: Antibacterial activity against Klebsiella pneumoniae assessed as diameter of inhibition zone at 20 mg/ml; format: functional; details: read-out: DIZ
Escherichia coli [15] = experiment: Antibacterial activity against Escherichia coli assessed as diameter of inhibition zone at 20 mg/ml; format: functional; details: read-out: DIZ
Salmonella typhi = experiment: Antibacterial activity against Salmonella typhi assessed as diameter of inhibition zone at 20 mg/ml; format: functional, Salmonella enterica subsp. enterica serovar Typhi; details: Salmonella enterica; read-out: DIZ
Staphylococcus aureus [16] = experiment: Antibacterial activity against Staphylococcus aureus after 24 hrs; format: functional
Flavobacterium columnare [17] = experiment: Antibacterial activity against Flavobacterium columnare ALM-00-173; format: functional
Flavobacterium columnare [18] = experiment: Antibacterial activity against Flavobacterium columnare BioMed after 24 hrs; format: functional
Escherichia coli [19] = experiment: Antibacterial activity against Escherichia coli; format: functional
Edwardsiella ictaluri = experiment: Antibacterial activity against Edwardsiella ictaluri after 24 hrs; format: functional
Pseudomonas aeruginosa [20] = experiment: Antibacterial activity against Pseudomonas aeruginosa; format: functional
Rhodococcus fascians = experiment: Antibacterial activity against Corynebacterium fascians assessed as diameter of inhibition zone at 10 mM after 48 to 72 hrs by paper disc method; format: functional; details: Rhodococcoides fascians; read-out: DIZ
Flavobacterium columnare [21] = experiment: Antibacterial activity against Flavobacterium columnare ALM-00-173 after 24 hrs; format: functional; details: ALM-00-173, 24 h
Staphylococcus aureus [22] = experiment: Antibacterial activity against Staphylococcus aureus; format: functional
Flavobacterium columnare [23] = experiment: Antibacterial activity against Flavobacterium columnare BioMed; format: functional

Molecule `CC1(C)S[C@@H]2[C@H](NC(=O)Cc3ccccc3)C(=O)N2[C@H]1C(=O)O` [PENICILLIN G] has a zone of inhibition at 1000 µg/mL (Staphylococcus aureus [1]) of 28 mm, an MIC (Escherichia coli [2]) of 0.77 µg/mL (≈ 2.3 µM) and a zone of inhibition at 1000 µg/mL (Escherichia coli [3]) of 25 mm. The MIC (Staphylococcus aureus [4]) was 0.46 µg/mL (≈ 1.38 µM).

Work on `O[C@H]1C=C2[C@H]3CN(Cc4cc5c(cc43)OCO5)[C@H]2C[C@@H]1O` yielded a zone of inhibition at 3000 µg/mL (Staphylococcus aureus [5]) of 22 mm and a zone of inhibition at 3000 µg/mL (Pseudomonas aeruginosa [6]) of 16 mm.

`COC1=CC(=O)[C@@]23CCN(Cc4c2cc2c(c4OC)OCO2)[C@@H]3C1` [DISTICHAMINE] was tested, and the MIC (Bacillus subtilis) was 130 µg/mL (≈ 395 µM), the MIC (Escherichia coli [7]) was 63 µg/mL (≈ 191 µM) and the MIC (Staphylococcus aureus [8]) was 63 µg/mL (≈ 191 µM). The MIC (Klebsiella pneumoniae [9]) was 63 µg/mL (≈ 191 µM).

`O=C1N[C@@H]2C(=C[C@H](O)[C@@H](O)[C@H]2O)c2cc3c(c(O)c21)OCO3` [NARCICLASINE] showed a zone of inhibition at 1000 µg/mL (Staphylococcus aureus [1]) of 11 mm, a zone of inhibition at 1000 µg/mL (Escherichia coli [3]) of 13 mm and an inhibition at 1000 µg/mL [10] of 62%. For the same molecule, the inhibition of growth at 8 µg/mL (Escherichia coli [11]) was 50%.

`CC[C@H](CC[C@@H](C)[C@H]1CC[C@H]2[C@@H]3CC=C4C[C@@H](O[C@@H]5O[C@H](CO)[C@@H](O)[C@H](O)[C@H]5O)CC[C@]4(C)[C@H]3CC[C@]12C)C(C)C` [SITOGLUSIDE] gave a zone of inhibition at 1000 µg/mL (Helicobacter pylori) of 9 mm, a zone of inhibition at 20000 µg/mL (Pseudomonas aeruginosa [12]) of 7 mm and a zone of inhibition at 1000 µg/mL (Staphylococcus aureus [1]) of 9 mm. It also gave a zone of inhibition at 20000 µg/mL (Staphylococcus aureus [13]) of 7 mm, a zone of inhibition at 20000 µg/mL (Klebsiella pneumoniae [14]) of 8 mm and a zone of inhibition at 1000 µg/mL (Escherichia coli [3]) of 14 mm. It also gave a zone of inhibition at 20000 µg/mL (Escherichia coli [15]) of 9 mm and a zone of inhibition at 20000 µg/mL (Salmonella typhi) of 8 mm.

With `COc1c2c(cc3c1OCO3)[C@]13C=C[C@H](OC)C[C@H]1N(CC3)C2` [BUPHANIDRINE] the MIC (Bacillus subtilis) was 130 µg/mL (≈ 412 µM), the MIC (Escherichia coli [7]) was 63 µg/mL (≈ 200 µM) and the MIC (Staphylococcus aureus [8]) was 63 µg/mL (≈ 200 µM). For the same molecule, the MIC (Klebsiella pneumoniae [9]) was 63 µg/mL (≈ 200 µM).

With `COc1cc2c(cc1OC)[C@@H]1[C@@H](OC2=O)[C@@H](O)C[C@H]2CCN(C)[C@H]21.Cl` the MIC (Staphylococcus aureus [16]) was > 37 µg/mL.

Molecule `[O-]c1cc2c3c(c1)c1cc4c(cc1c[n+]3CC2)OCO4` [UNGEREMINE] has an MIC (Flavobacterium columnare [17]) of 3 µg/mL (≈ 11.3 µM), an MIC (Flavobacterium columnare [18]) of 1 µM (≈ 0.265 µg/mL) and an MIC (Escherichia coli [19]) of 25 to 50 µg/mL (≈ 94.2 to 188 µM). The MIC (Edwardsiella ictaluri) was 3 µg/mL (≈ 11.3 µM), the MIC (Pseudomonas aeruginosa [20]) was 125 to 250 µg/mL (≈ 471 to 942 µM) and the zone of inhibition at 10000 µM (Rhodococcus fascians) was 15 mm. It also gave an MIC (Flavobacterium columnare [21]) of 1 µM (≈ 0.265 µg/mL), an MIC (Staphylococcus aureus [22]) of 25 to 265 µg/mL (≈ 94.2 to 999 µM) and an MIC (Flavobacterium columnare [23]) of 3 µg/mL (≈ 11.3 µM).

`CCCCCCCCCCCCCCCCC/C=C/CCC[C@@H](O)[C@@H](O)C(CO)N(C(=O)[C@H](O)CCCCCCCCCCCCCCC)C(O)CO` (stereo not given in full) was tested, and the MIC (Escherichia coli [2]) was 50 µg/mL (≈ 66.1 µM) and the MIC (Staphylococcus aureus [4]) was 30 µg/mL (≈ 39.7 µM).

In the case of `O=c1c2cc3c(cc2c2cccc4ccn1c42)OCO3`, the zone of inhibition at 20000 µg/mL (Staphylococcus aureus [13]) is reported as 7 mm and the zone of inhibition at 20000 µg/mL (Escherichia coli [15]) is reported as 7 mm.
